Measurements as given in patent publication US20180028680A1, “GLYCOOPTIMIZED ANTIBODY DRUG CONJUGATES” (GLYCOTOPE GMBH, priority 2015, published 2018).

System: SK-BR-3 cells
Test: Inhibition of proliferation, MTT assay
Type: cell-based, human
Settings: 20 nM, positive control
Procedure: The MTT assay is a non-radioactive assay based on the cleavage of the soluble yellow tetrazolium salt MTT (3-[4,5-Dimethylthiazol-2-yl]-2,5-diphenyltetrazolium bromide; Thiazolyl Blue) by mitochondrial dehydrogenases of viable cells. […] The absorbance signal is a direct measure for viable cells in the culture.
Human IgG1 or medium alone served as negative controls. Briefly, SK-BR-3 cells were grown for 2 days in 96-well flat bottom plates. […] The supernatant was completely removed and MTT was added. Cells were incubated for 2 hours with MTT at 37° C. in a humidified CO2 incubator. The supernatant was removed and cells were lysed using HCI and 2-propanol containing lysis buffer for 1 h at room temperature in the dark. Absorbance at 570 nm/630 nm was measured in a plate reader Infinite F200 (Tecan Austria GmbH).
Proliferation after 4 days of incubation with the antibodies was calculated relative to the proliferation in the medium control.

In the case of CC(=O)O[C@H]1C(=O)[C@@]2(C)[C@H]([C@H](OC(=O)c3ccccc3)[C@]3(O)C[C@H](OC(=O)[C@H](O)[C@@H](NC(=O)c4ccccc4)c4ccccc4)C(C)=C1C3(C)C)[C@]1(OC(C)=O)CO[C@@H]1C[C@@H]2O [Taxol], the “proliferation compared to the medium control” value is reported as 6%.
